Measured values as given in US20100221763A1, “Specific Acceptors for Transferases to Saccharides and Method for Obtaining and Using Same” (Health Research, Inc, priority 2005, published 2010).

What was measured:
human FTVII = molecular target: T1, human FTVII (Homo sapiens, UniProt Q11130); experiment: [14C]Fuc transfer by FTVII from extracts of transfected COS-7 cells; type: biochemical; conditions: extracts of COS-7 cells transfected with FTVII cDNA; unpublished results
T1 construct: expressed in transfected cells; host or cells: COS-7
T1 sequence (Q11130 whole entry): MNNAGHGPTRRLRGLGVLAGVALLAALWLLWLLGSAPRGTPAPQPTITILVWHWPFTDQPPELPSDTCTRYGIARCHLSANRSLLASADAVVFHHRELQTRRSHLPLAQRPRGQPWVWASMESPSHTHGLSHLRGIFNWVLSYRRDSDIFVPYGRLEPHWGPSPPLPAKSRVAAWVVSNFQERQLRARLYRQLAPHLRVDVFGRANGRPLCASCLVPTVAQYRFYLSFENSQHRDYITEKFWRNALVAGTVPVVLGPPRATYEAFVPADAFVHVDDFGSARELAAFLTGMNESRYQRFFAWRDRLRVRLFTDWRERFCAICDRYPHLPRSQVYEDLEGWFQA
From the text: The sialylation steps in this reaction scheme were validated by analyzing reaction products using mass spectroscopy (Table VI).

Siglec 4 (MAG) = conditions: Blixt et al. (49); cited from earlier work
[1] = system: β-GlcNAc:β1,4GalNAc-T of breast tumor BC9400; experiment: β-GlcNAc:β1,4GalNAc-T assay, breast tumor extract; type: biochemical, human; conditions: other acceptors, 1 mg protein of the tissue extract
Protocol: (§1) Colon tumor tissue (CC9338) and breast tumor tissue (BC9400) were obtained during surgical procedures at Roswell Park Cancer Institute and stored frozen within 1 h at −70° C. The tissues were homogenized at 4° C. with 4 volumes of 0.1M Tris Maleate […] 0.1% NaN3 using kinematica. After adjusting the concentration of Triton X-100 to 2%, these homogenates were mixed in the cold room for 1 h using Speci-Mix (Thermolyne) and then centrifuged at 20,000 g for 1 h at 4° C. The clear fat-free supernatant was stored frozen at −20° C. until use. Aliquots of 10 μL from this extract were used in assays run in duplicates. Glycosyltransferase activity in cell lysate was determined by mixing the lysates with acceptor and radiolabeled donor (monosaccharide) under the reaction conditions detailed below, followed by separation of un-reacted donor from the radioactive product using anionic or hydrophobic chromatography. In all cases, the radioactive content of isolated products was determined by using 3a70 scintillation cocktail (Research Products International, Mount Prospect, Ill.) and a Beckman LS6500 scintillation counter. Controls for each assay contained the reaction mixture with everything except the acceptor. All assays were run in duplicate.
(§2) The acceptors used for measuring the glycosyltransferase and sulfotransferase activities are given in Table I. The following are the conditions for individual enzymatic assays. Reaction temperature in all cases was 37° C. α2,3- and α2,6 sialytransferase (ST) assay reactions proceeded for 2 h in a mixture containing 100 mM sodium cacodylate buffer (pH 6.0), 7.5 mM acceptor, CMP-[9-^3H]NeuAc (typically 0.2 μCi) and 10 μl cell extract in a total volume of 20 μl [Chandrasekaran et al., 1995]. βGlcNAc:β1,4Gal-T and αGalNAc:β1,3Gal-T assay mixtures in duplicate contained 0.1M Hepes-NaOH pH 7.0, 7 mM ATP, 20 mM Mn acetate, 1 mM UDP-Gal, UDP [^14C]Gal (0.05 μCi; 327mCi/mmol; Amersham), 0.5 mM acceptor (unless otherwise stated) and the enzyme in a total volume of 20 μL. It was incubated for 4 h [Chandrasekaran et al., 2001]. βGlcNAc:β1,4GalNAc-T assay mixtures in duplicate contained 0.1M Hepes-NaOH pH 7.0, 7 mM ATP, 20 mM Mn acetate. UDP [^3H] GalNAc (0.20 μCi; 7.8 Ci/mmol: New England Nuclear Corp.) 7.5 mM acceptor (unless otherwise stated) and the enzyme in a total volume of 20 μL and incubated for 4 h [Chandrasekaran et al., 2001].
(§3) Dowex-1-C1 or Sep-Pak C18 cartridges were used to isolate radiolabeled product from the reaction mixture. For GalT, GalNAc-T and FT assays, the incubation mixture was diluted with 1 ml water and passed through a 1 ml Dowex-1-C1 column [Chandrasekaran et al., 1996; Chandrasekaran et al., 2001]. The column was washed twice with 1 ml of water. The breakthrough and the water wash contained the [^14C]-galactosylated or [^14C]-fucosylated products formed with neutral acceptors. 3 ml of 0.1M NaCl was used to obtain [^14C]-fucosylated products from sialylated acceptors after water elution. For sialytransferase assays, the radioactive products from benzylglycosides were separated by hydrophobic chromatography on Sep-Pak C18 cartridge (Waters, Milford, Mass.), and elution of the product was done with 3 ml methanol [Palcic et al., 1988]. For sulfotransferase assays, elution of the [^35S]-sulfated compound from Dowex-1-C1 column was achieved by 3 ml of 0.2M NaCl [Chandrasekaran et al., 2004].

[2] = system: β-GlcNAc:β1,4Gal-T of breast tumor BC9400; experiment: β-GlcNAc:β1,4Gal-T assay, breast tumor extract; type: biochemical, human; conditions: other acceptors, 1 mg protein of the tissue extract
Protocol: as §1, §2, §3

[3] = system: β-GlcNAc:β1,4GalNAc-T of colon tumor CC9338; experiment: β-GlcNAc:β1,4GalNAc-T assay, colon tumor extract; type: biochemical, human; conditions: other acceptors, 1 mg protein of the tissue extract
Protocol: as §1, §2, §3

[4] = system: β-GlcNAc:β1,4Gal-T of colon tumor CC9338; experiment: β-GlcNAc:β1,4Gal-T assay, colon tumor extract; type: biochemical, human; conditions: other acceptors, 1 mg protein of the tissue extract
Protocol: as §1, §2, §3

[5] = molecular target: T2, FTVI of breast tumor BC9400 (Homo sapiens, UniProt P51993); experiment: FTVI assay, breast tumor extract; type: biochemical; conditions: 1 mg protein of the tissue extract
T2 construct: from tissue; host or cells: breast tumor tissue BC9400, Triton X-100 extract
T2 sequence (P51993 whole entry): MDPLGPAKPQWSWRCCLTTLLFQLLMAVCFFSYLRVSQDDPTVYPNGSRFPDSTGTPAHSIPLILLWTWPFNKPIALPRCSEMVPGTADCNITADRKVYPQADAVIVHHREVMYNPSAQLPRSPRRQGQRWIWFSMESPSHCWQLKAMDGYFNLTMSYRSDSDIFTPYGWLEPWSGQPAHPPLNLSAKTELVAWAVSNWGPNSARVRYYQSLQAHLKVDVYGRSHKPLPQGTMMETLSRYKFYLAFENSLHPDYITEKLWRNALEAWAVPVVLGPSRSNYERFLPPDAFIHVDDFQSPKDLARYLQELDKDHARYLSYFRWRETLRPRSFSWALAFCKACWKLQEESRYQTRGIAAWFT
Protocol: as §1, with “duplicate. […]” for “duplicate.”

[6] = molecular target: T3, FTVI of colon tumor CC9338 (Homo sapiens, UniProt P51993); experiment: FTVI assay, colon tumor extract; type: biochemical; conditions: 1 mg protein of the tissue extract
T3 construct: from tissue; host or cells: colon tumor tissue CC9338, Triton X-100 extract
T3 sequence (P51993 whole entry): as above
Protocol: as §1, with “duplicate. […]” for “duplicate.”

[7] = molecular target: T4, Rat recombinant α2,3(O)ST (Rattus norvegicus, UniProt Q11205); experiment: Sialyltransferase assay with cloned α2,3(O)ST; type: biochemical; conditions: Table I; acceptor 7.5 mM; 100% = 40560 CPM (3-O-MeGalβ1,4GlcNAcβ1,6(Galβ1,3)GalNAcα-O-Bn)
T4 construct: purchased Calbiochem
T4 sequence (Q11205 1-350): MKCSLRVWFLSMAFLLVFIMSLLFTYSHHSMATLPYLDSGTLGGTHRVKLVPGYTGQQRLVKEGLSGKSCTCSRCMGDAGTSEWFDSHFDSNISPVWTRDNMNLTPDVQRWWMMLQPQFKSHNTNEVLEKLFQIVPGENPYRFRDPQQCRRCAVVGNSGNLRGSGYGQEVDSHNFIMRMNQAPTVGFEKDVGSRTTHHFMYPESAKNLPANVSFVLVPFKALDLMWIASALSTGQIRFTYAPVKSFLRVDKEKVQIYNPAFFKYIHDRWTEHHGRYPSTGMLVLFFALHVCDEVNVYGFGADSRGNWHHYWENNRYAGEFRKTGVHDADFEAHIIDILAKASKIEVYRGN

LNCaP α2,3(O)ST = experiment: Sialyltransferase assay with LNCaP cell extract; type: biochemical, human; conditions: Table I; acceptor 7.5 mM; 100% = 30930 CPM (3-O-MeGalβ1,4GlcNAcβ1,6(Galβ1,3)GalNAcα-O-Bn)
Summary of the method: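 LNCaP Triton X-100 extract (5 mg protein/ml; 0.1M Tris-maleate pH6.3) incubated with acceptor (typically 7.5 mM) and CMP-[9-3H]NeuAc (typically 0.2 μCi) in 0.1M Na cacodylate pH6.0, 2 h at 37 °C, in duplicate. Radioactive product separated on Dowex-1-formate, Sep-Pak C18 or Biogel P2 and counted by scintillation; blank without acceptor subtracted.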

[8] = system: α1,2-L-FT plus α1,4-L-FT of breast tumor BC9400; experiment: α1,2-L-FT plus α1,4-L-FT assay, breast tumor extract; type: biochemical, human; conditions: 1 mg protein of the tissue extract
Protocol: as §1, with “duplicate. […]” for “duplicate.”

[9] = system: α1,2-L-FT plus α1,4-L-FT of colon tumor CC9338; experiment: α1,2-L-FT plus α1,4-L-FT assay, colon tumor extract; type: biochemical, human; conditions: 1 mg protein of the tissue extract
Protocol: as §1, with “duplicate. […]” for “duplicate.”

L-Selectin = L-Selectin (Homo sapiens, UniProt P14151); conditions: compared to NeuAcα2,3Galβ1,4(Fucα1,3)GlcNAcβ-O-Me (sialyl Lewis-x); cited from earlier work
Chain of L-Selectin (P14151 39-372, species assumed): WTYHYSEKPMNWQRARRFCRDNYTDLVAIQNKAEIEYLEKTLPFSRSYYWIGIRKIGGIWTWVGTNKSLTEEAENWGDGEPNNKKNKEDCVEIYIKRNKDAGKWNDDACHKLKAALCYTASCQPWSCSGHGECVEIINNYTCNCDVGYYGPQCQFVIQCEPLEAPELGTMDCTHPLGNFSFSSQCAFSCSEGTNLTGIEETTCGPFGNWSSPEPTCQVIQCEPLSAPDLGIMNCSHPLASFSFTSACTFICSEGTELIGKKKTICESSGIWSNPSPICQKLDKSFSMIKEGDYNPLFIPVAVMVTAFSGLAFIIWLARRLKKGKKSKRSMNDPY

P-Selectin = P-Selectin (Homo sapiens, UniProt P16109); conditions: compared to NeuAcα2,3Galβ1,4(Fucα1,3)GlcNAcβ-O-Me (sialyl Lewis-x); cited from earlier work
Chain of P-Selectin (P16109 42-830, species assumed): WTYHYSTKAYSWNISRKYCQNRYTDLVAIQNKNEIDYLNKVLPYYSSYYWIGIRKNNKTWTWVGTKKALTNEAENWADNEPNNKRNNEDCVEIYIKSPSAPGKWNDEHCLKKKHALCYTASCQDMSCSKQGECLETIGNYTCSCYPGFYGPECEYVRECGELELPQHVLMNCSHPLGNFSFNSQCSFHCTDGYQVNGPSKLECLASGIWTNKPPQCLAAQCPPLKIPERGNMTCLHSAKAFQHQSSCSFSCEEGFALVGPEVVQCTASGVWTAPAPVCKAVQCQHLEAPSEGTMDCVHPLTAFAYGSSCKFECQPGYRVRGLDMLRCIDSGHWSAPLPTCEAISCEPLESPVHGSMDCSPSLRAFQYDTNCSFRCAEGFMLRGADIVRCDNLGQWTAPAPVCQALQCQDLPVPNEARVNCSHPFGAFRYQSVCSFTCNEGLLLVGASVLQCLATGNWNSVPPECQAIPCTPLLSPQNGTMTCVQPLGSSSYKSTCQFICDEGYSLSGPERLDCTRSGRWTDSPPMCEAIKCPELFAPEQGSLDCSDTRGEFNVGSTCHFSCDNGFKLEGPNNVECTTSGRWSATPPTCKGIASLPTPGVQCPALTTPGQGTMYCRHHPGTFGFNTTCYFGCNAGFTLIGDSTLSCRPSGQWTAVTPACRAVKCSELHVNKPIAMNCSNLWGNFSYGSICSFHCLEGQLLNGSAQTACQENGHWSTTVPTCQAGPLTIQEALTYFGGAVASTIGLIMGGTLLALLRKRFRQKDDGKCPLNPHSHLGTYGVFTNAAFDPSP

With CO[C@@H]1O[C@H](COS(=O)(=O)O)[C@@H](O[C@@H]2O[C@H](CO)[C@H](O)[C@H](O[C@@H]3O[C@H](COS(=O)(=O)O)[C@@H](O[C@@H]4O[C@H](CO)[C@H](O)[C@H](O[C@]5(C(=O)O)C[C@H](O)[C@@H](NC(C)=O)[C@H]([C@H](O)[C@H](O)CO)O5)[C@H]4O)[C@H](O)[C@H]3NC(C)=O)[C@H]2O)[C@H](O)[C@H]1NC(C)=O [NeuAcα2,3Galβ1,4(6-O-Sulfo)GlcNAcβ1,3Galβ1,4(6-O-Sulfo)GlcNAcβ-O-Me] the “transfer of [14C]Fuc to the acceptor” value (human FTVII) was “efficiently transferring”.

For CC(=O)NC1C(O)CC(OCC2OC(OC(C)C(N)C(=O)O)C(NC(C)=O)C(OC3OC(CO)C(O)C(OC4(C(=O)O)CC(O)C(NC(C)=O)C(C(O)C(O)CO)O4)C3O)C2O)(C(=O)O)OC1C(O)C(O)CO (stereo not drawn) [NeuAcα2,3Galβ1,3(NeuAcα2,6)GalNAcα-O-Thr, NeuAcα2,3Galβ1,3 (NeuAcα2,6)GalNAcα-O-Thr], the “fold more potent than NeuAcα2,6GalNAcα-O-Thr in inhibiting Siglec 4 (MAG) binding” value (Siglec 4 (MAG)) is listed as 3,000 fold.

For CC(=O)N[C@H]1[C@H](OCc2ccccc2)O[C@H](CO)[C@@H](O[C@@H]2O[C@H](CO)[C@@H](O)[C@H](O)[C@H]2NC(C)=O)[C@@H]1O [GlcNAcβ1,4GlcNAcβ-O-Bn], the “b) β-GlcNAc:β1,4GalNAc-T activity: incorporation of radioactive sugar” value [1] was 57.8 CPM × 10^−3, the “a) β-GlcNAc:β1,4Gal-T activity: incorporation of radioactive sugar” value [2] was 436.7 CPM × 10^−3 and the “b) β-GlcNAc:β1,4GalNAc-T activity: incorporation of radioactive sugar” value [3] was 18.9 CPM × 10^−3. The “a) β-GlcNAc:β1,4Gal-T activity: incorporation of radioactive sugar” value [4] was 307.6 CPM × 10^−3, the “FTVI activity: incorporation of radioactive sugar” value [5] was 0.3 CPM × 10^−3 and the “FTVI activity: incorporation of radioactive sugar” value [6] was 139.1 CPM × 10^−3.

In the case of CC(=O)NC1C(O)CC(OCC2OC(OC(C)C(N)C(=O)O)C(NC(C)=O)C(OC3OC(CO)C(O)C(O)C3O)C2O)(C(=O)O)OC1C(O)C(O)CO (stereo not drawn) [NeuAcα2,6(Galβ1,3)GalNAcα-O-Thr], the “fold more potent than NeuAcα2,6GalNAcα-O-Thr in inhibiting Siglec 4 (MAG) binding” value (Siglec 4 (MAG)) is listed as 100 fold.

With CO[C@@H]1O[C@H](CO)[C@H](O)[C@H](O[C@@H]2O[C@H](CO)[C@@H](O)[C@H](O[C@@H]3O[C@H](CO)[C@H](O)[C@H](O)[C@H]3O)[C@H]2NC(C)=O)[C@H]1O [Galβ1,3GlcNAcβ1,3Galβ-O-Me] the “Sialyltransferase activity (%) Cloned α2,3(O)ST” value [7] was 37.2%, the “Sialyltransferase activity (%) LNCaP α2,3(O)ST” value (LNCaP α2,3(O)ST) was 1.4% and the “α1,2-L-FT plus α1,4-L-FT activity: incorporation of radioactive sugar” value [8] was 16.8 CPM × 10^−3. For the same molecule, the “α1,2-L-FT plus α1,4-L-FT activity: incorporation of radioactive sugar” value [9] was 578.9 CPM × 10^−3.

For COC1OC(COC2OC(CO)C(OC3OC(CO)C(O)C(O)C3NC(C)=O)C(OC3OC(C)C(O)C(O)C3O)C2NC(C)=O)C(O)C(OC2OC(CO)C(O)C(OC3(C(=O)O)CC(O)C(NC(C)=O)C(C(O)C(O)CO)O3)C2O)C1NC(C)=O (stereo not drawn) [GalNAcβ1,4(Fucα1,3)GlcNAcβ1,6(NeuAcα2,3Galβ1,3) GalNAcα-O-Me], the “fold better inhibitor of L-Selectin binding” value (L-Selectin) is given as 5-6 fold and the “fold better inhibitor of P-Selectin binding” value (P-Selectin) is given as 5-6 fold.
